We go through 53 molecules from patent publication US20220142165A1 (priority 2019, published 2022).

Data set [1] relates to tomato late blight pathogen (Phylophihora infeslans). Put plainly: whole plant or invertebrate. The format is in vivo. The following applies: Phytophthora infestans, 96 h, read-out: Control value.
Data set [2] concerns grape downy mildew pathogen (Plasmopara viticola). Put plainly: Grape downy mildew control test (Test Example 2). The following applies: 100 ppm by mass, sprayed on grape leaf disc (variety Chardonnay) before inoculation, blotch area ratio seven days after inoculation, 20° C.; for pest or weed control at 100 ppm: Plasmopara viticola, foliar, 168 h. The format is in vivo. As for the experimental part:
5 parts by mass of the compound according to the present invention, 93.5 parts by mass of dimethylformamide, and 1.5 parts by mass of polyoxyethylene alkylaryl ether were mixed and dissolved to prepare an emulsion (I) containing 5% by mass of an active ingredient.
The control value was calculated according to the following formula.
Control value (%)=100−{blotch area ratio in treated area/blotch area ratio in untreated area}×100
Water was added to the emulsion (I) such that the concentration of the heterocyclic compound became 100 ppm by mass, and then the heterocyclic compound was dissolved therein to obtain a pharmaceutical solution. Then, the pharmaceutical solution was sprayed on a leaf disc of grape (variety “Chardonnay”) placed on agar in a 6-well plate. After air-drying, the leaf disc on which the pharmaceutical solution was sprayed was inoculated with zoosporangia of grape downy mildew pathogen (Plasmopara viticola) in a suspension by spraying the suspension thereon (treated area). As a control, a leaf disc on which no pharmaceutical solution was sprayed was inoculated in the same way as mentioned above (untreated area). The resultant leaf discs were left in a moist chamber at 20° C. Seven days after inoculation, the grape leaf discs were visually observed to measure the blotch area ratio to calculate the control value.

SMILES strings stand for the structures.

As for `CO/N=C/c1ccnc(C(Oc2cc(C)c3ncsc3c2)c2nnco2)c1` (stereo not drawn) [b-23], the melting point lay in the range of 146 to 148 °C. Moreover, in data set [1], the pest or weed control at 125 ppm is at least 75%. The pest or weed control at 100 ppm in data set [2] was at least 75%.

In turn, `CO/N=C/c1cc(C(Oc2cc(Cl)c3ncsc3c2)c2nnco2)ncc1F` (stereo not drawn) [b-55] registered a melting point of 153 to 154 °C. Further, in data set [1], the pest or weed control at 125 ppm is at least 75%. In addition, in data set [2], the pest or weed control at 100 ppm is at least 75%.

As to `CO/N=C/c1ccnc(C(Oc2cc(Br)c3ncsc3c2)c2nnco2)c1` (stereo not drawn) [b-13], in data set [1], the pest or weed control at 125 ppm is at least 75%. In data set [2], the pest or weed control at 100 ppm is at least 75%.

On to `CO/N=C/c1cc(C(Oc2cc(Br)c3nc(C)sc3c2)c2nnco2)ncc1F` (stereo not drawn) [b-42], for which the melting point was in the range of 70 to 75 °C. Also, in data set [1], the pest or weed control at 125 ppm was at least 75%. In addition, the pest or weed control at 100 ppm in data set [2] was at least 75%.

Molecule `CO/N=C/c1ccnc(C(Oc2ccc3nc(C)sc3c2)c2nnco2)c1` (stereo not drawn) [b-21] yielded a melting point of 107 to 109 °C. Further, in data set [1], the pest or weed control at 125 ppm was at least 75%. In addition, the pest or weed control at 100 ppm in data set [2] is at least 75%.

The molecule `CO/N=C/c1cc(C(Oc2ccc3ncsc3c2)c2nnco2)ncc1[S+](C)[O-]` (stereo not drawn) [b-61] had a melting point of 85 to 88 °C. Moreover, the pest or weed control at 100 ppm in data set [2] is at least 75%.

`CCc1nc2ccc(OC(c3cc(/C=N/OC)ccn3)c3nnco3)cc2s1` (stereo not drawn) [b-29]: the pest or weed control at 125 ppm in data set [1] is at least 75%. Besides, the pest or weed control at 100 ppm in data set [2] was at least 75%.

Consider `Cn1cnc2ccc(OC(c3ccc(F)cn3)c3nnco3)cc21` (stereo not drawn) [b-6], for which the pest or weed control at 125 ppm in data set [1] is at least 75%.

The molecule `CO/N=C/c1cc(C(Oc2ccc3nc(OC)sc3c2)c2nnco2)ncc1F` (stereo not drawn) [b-54] registered a melting point of 134 to 136 °C. In addition, the pest or weed control at 100 ppm in data set [2] is at least 75%.

As to `CO/N=C/c1ccnc(C(Oc2ccc3nc(OC)sc3c2)c2nnco2)c1` (stereo not drawn) [b-28], the pest or weed control at 100 ppm in data set [2] was at least 75%.

As for `c1ccc(-c2ccnc(C(Oc3ccc4nnsc4c3)c3nnco3)c2)cc1` (stereo not drawn) [b-51], the pest or weed control at 125 ppm in data set [1] was at least 75%. Also, in data set [2], the pest or weed control at 100 ppm is at least 75%.

On to `CC(C)=NOc1ccnc(C(Oc2ccc3ncsc3c2)c2nnco2)c1` (stereo not drawn) [b-33], for which the pest or weed control at 125 ppm in data set [1] is at least 75%. In addition, the pest or weed control at 100 ppm in data set [2] was at least 75%.

As to `CCCCC(Oc1ccc2ncn(C)c2c1)c1nnco1` (stereo not drawn) [b-4], the pest or weed control at 125 ppm in data set [1] is at least 75%.

For the molecule `CO/N=C/c1cc(C(Oc2ccc3ncsc3c2C)c2nnco2)ncc1F` (stereo not drawn) [b-77], the melting point lay within 108 to 110 °C. Also, in data set [2], the pest or weed control at 100 ppm is at least 75%.

As to `COCCO/N=C/c1cc(C(Oc2ccc3nc(C)sc3c2)c2nnco2)ncc1F` (stereo not drawn) [b-86], in data set [1], the pest or weed control at 125 ppm is at least 75%. Also, in data set [2], the pest or weed control at 100 ppm is at least 75%.

`CO/N=C/c1cc(C(Oc2ccc3ncsc3c2)c2nnco2)ncc1Br` (stereo not drawn) [b-39]: the pest or weed control at 125 ppm in data set [1] is at least 75%. For the same molecule, the pest or weed control at 100 ppm in data set [2] is at least 75%.

For the molecule `c1ccc(C(Nc2ccc3ncsc3c2)c2nnco2)cc1` (stereo not drawn) [b-5], the pest or weed control at 125 ppm in data set [1] was at least 75%.

In the case of `CO/N=C/c1ccnc(C(Oc2ccc3ncsc3c2)c2nnco2)n1` (stereo not drawn) [b-25], in data set [1], the pest or weed control at 125 ppm is at least 75%.

`CO/N=C/c1cc(C(Oc2ccc3nc(C(F)F)sc3c2)c2nnco2)ncc1F` (stereo not drawn) [b-72] had a melting point of 143 to 144 °C. For the same molecule, in data set [2], the pest or weed control at 100 ppm is at least 75%.

In the case of `CC#Cc1ccnc(C(Oc2ccc3ncsc3c2)c2nnco2)c1` (stereo not drawn) [a-45, 2-((benzo[d]thiazol-6-yloxy)(4-(prop-1-yn-1-yl)pyridin-2-yl)methyl)-1,3,4-oxadiazole], the pest or weed control at 125 ppm in data set [1] is at least 75%. The pest or weed control at 100 ppm in data set [2] is at least 75%.

In turn, `CO/N=C/c1cc(C(Oc2ccc3nc(I)sc3c2)c2nnco2)ncc1F` (stereo not drawn) [b-53] showed a melting point of 166 to 168 °C. For the same molecule, in data set [2], the pest or weed control at 100 ppm was at least 75%.

`CO/N=C/c1ccnc(C(Oc2ccc3nnsc3c2)c2nnco2)c1` (stereo not drawn) [b-16]: the melting point fell in the range of 172 to 173 °C. In addition, the pest or weed control at 100 ppm in data set [2] was at least 75%.

As to `CCc1cc(OC(c2cc(/C=N/OC)ccn2)c2nnco2)cc2scnc12` (stereo not drawn) [b-14], the pest or weed control at 125 ppm in data set [1] is at least 75%. Further, the pest or weed control at 100 ppm in data set [2] is at least 75%.

As to `COCOCc1ccnc(C(Oc2ccc3nc(C)sc3c2)c2nnco2)c1` (stereo not drawn) [a-175], in data set [2], the Control value result was “a-175%”.

On to `CCCO/N=C/c1ccnc(C(Oc2ccc3ncsc3c2)c2nnco2)c1` (stereo not drawn) [b-69], for which the pest or weed control at 125 ppm in data set [1] was at least 75%. Besides, the pest or weed control at 100 ppm in data set [2] is at least 75%.

`Cn1cnc2ccc(OC(c3ccccc3)c3nnco3)cc21` (stereo not drawn) [b-3] came in with a melting point of 114 to 116 °C. Also, the pest or weed control at 125 ppm in data set [1] was at least 75%.

Consider `CO/N=C/c1cc(C(Oc2cc(Br)c3ncsc3c2)c2nnco2)ncc1F` (stereo not drawn) [b-56], for which the melting point fell in the range of 170 to 172 °C. Besides, the pest or weed control at 125 ppm in data set [1] was at least 75%.

For the molecule `CO/N=C/c1cc(C(Oc2ccc3nc(C)sc3c2)c2nnco2)ncc1F` (stereo not drawn) [b-71], the melting point is 167 to 168 °C.

Consider `C(=NOCc1ccccc1)C(Oc1ccc2ncsc2c1)c1nnco1` (stereo not drawn) [b-81], for which the pest or weed control at 100 ppm in data set [2] was at least 75%.

As for `CO/N=C\c1cc(C(Oc2ccc3ncsc3c2)c2nnco2)ncc1F` (stereo not drawn) [b-38], the pest or weed control at 125 ppm in data set [1] is at least 75%. In data set [2], the pest or weed control at 100 ppm was at least 75%.

With `C(=N\OCc1nnco1)/c1ccnc(C(Oc2ccc3ncsc3c2)c2nnco2)c1` (stereo not drawn) [b-67], the pest or weed control at 125 ppm in data set [1] is at least 75%.

With `CO/N=C/c1cc(C(Oc2ccc3ncsc3c2)c2nnco2)ncc1Cl` (stereo not drawn) [b-37], in data set [1], the pest or weed control at 125 ppm was at least 75%. Moreover, the pest or weed control at 100 ppm in data set [2] was at least 75%.

For the molecule `Cn1cnc2ccc(OC(c3ccc(Cl)cc3)c3nnco3)cc21` (stereo not drawn) [b-7], the pest or weed control at 125 ppm in data set [1] was at least 75%.

For the molecule `CCCCON=CC(Oc1ccc2ncsc2c1)c1nnco1` (stereo not drawn) [b-83], the pest or weed control at 100 ppm in data set [2] is at least 75%.

For `Fc1ccc(C(Oc2cc(Br)c3ncsc3c2)c2nnco2)nc1` (stereo not drawn) [a-20, 2-((4-bromobenzo[d]thiazol-6-yloxy)(5-fluoropyridin-2-yl)methyl)-1,3,4-oxadiazole], the pest or weed control at 125 ppm in data set [1] is at least 75%. Further, the pest or weed control at 100 ppm in data set [2] is at least 75%.

In the case of `CCCCC(Oc1ccc2ncsc2c1)c1nnco1` (stereo not drawn) [a-1, 2-(1-(benzo[d]thiazol-6-yloxy)pentyl)-1,3,4-oxadiazole], the pest or weed control at 125 ppm in data set [1] is at least 75%.

`CO/N=C/c1cc(C(Oc2ccc3nc(Br)sc3c2)c2nnco2)ncc1F` (stereo not drawn) [b-43]: the melting point lay within 151 to 154 °C. Besides, the pest or weed control at 100 ppm in data set [2] was at least 75%.

As to `CO/N=C/c1cc(C(Oc2ccc3ncsc3c2)c2nnco2)ncc1SC` (stereo not drawn) [b-41], in data set [2], the pest or weed control at 100 ppm was at least 75%.

`C(=N\OCC1CC1)/c1ccnc(C(Oc2ccc3ncsc3c2)c2nnco2)c1` (stereo not drawn) [b-68]: the pest or weed control at 125 ppm in data set [1] was at least 75%. Moreover, the pest or weed control at 100 ppm in data set [2] is at least 75%.

As for `CCOCc1ccnc(C(Oc2ccc3ncsc3c2)c2nnco2)c1` (stereo not drawn) [a-75], the Control value result in data set [2] is reported as “a-75%”.

Consider `Cn1cnc2c(F)cc(OC(c3ccc(F)cn3)c3nnco3)cc21` (stereo not drawn) [b-8], for which the pest or weed control at 125 ppm in data set [1] was at least 75%.

Take `Fc1ccc(C(Oc2ccc3ncsc3c2)c2nnco2)nc1` (stereo not drawn) [a-8, 2-((benzo[d]thiazol-6-yloxy)(5-fluoropyridin-2-yl)methyl)-1,3,4-oxadiazole]: in data set [1], the pest or weed control at 125 ppm is at least 75%. Further, the pest or weed control at 100 ppm in data set [2] was at least 75%.

Take `FC(F)(F)CO/N=C/c1ccnc(C(Oc2ccc3ncsc3c2)c2nnco2)c1` (stereo not drawn) [b-19]: the melting point is 128 to 130 °C. In data set [2], the pest or weed control at 100 ppm is at least 75%.

As for `C#CCO/N=C/c1ccnc(C(Oc2ccc3ncsc3c2)c2nnco2)c1` (stereo not drawn) [b-20], the pest or weed control at 125 ppm in data set [1] was at least 75%. For the same molecule, the pest or weed control at 100 ppm in data set [2] was at least 75%.

`CCc1cc(OC(c2cc(/C=N/OC)c(Br)cn2)c2nnco2)cc2sc(C)nc12` (stereo not drawn) [b-52] came in with a melting point of 160 to 161 °C. The pest or weed control at 100 ppm in data set [2] was at least 75%.

Consider `COCCO/N=C/c1cc(C(Oc2ccc3ncsc3c2)c2nnco2)ncc1F` (stereo not drawn) [b-85], for which the pest or weed control at 125 ppm in data set [1] was at least 75%. Further, the pest or weed control at 100 ppm in data set [2] was at least 75%.

Take `CNc1nc2ccc(OC(c3cc(/C=N/OC)ccn3)c3nnco3)cc2s1` (stereo not drawn) [b-36]: in data set [1], the pest or weed control at 125 ppm was at least 75%. Besides, the pest or weed control at 100 ppm in data set [2] was at least 75%.

Take `CC(C)O/N=C/c1ccnc(C(Oc2ccc3ncsc3c2)c2nnco2)c1` (stereo not drawn) [b-18]: the pest or weed control at 125 ppm in data set [1] was at least 75%. Also, in data set [2], the pest or weed control at 100 ppm is at least 75%.

For the molecule `Cc1nc2ccc(OC(c3cc(/C=N/OCC4CC4)c(F)cn3)c3nnco3)cc2s1` (stereo not drawn) [b-49], the pest or weed control at 125 ppm in data set [1] is at least 75%. Also, the pest or weed control at 100 ppm in data set [2] was at least 75%.

Consider `CO/N=C/c1cc(C(Oc2ccc3ncsc3c2N)c2nnco2)ncc1F` (stereo not drawn) [b-78], for which the pest or weed control at 125 ppm in data set [1] was at least 75%.

Regarding `CO/N=C/c1cc(C(Oc2ccc3ncsc3c2)c2nnco2)ncc1C` (stereo not drawn) [b-59], in data set [2], the pest or weed control at 100 ppm was at least 75%.

As to `CO/N=C/c1ccnc(C(Oc2ccc3ncsc3c2)c2nnco2)c1` (stereo not drawn) [b-9], the pest or weed control at 125 ppm in data set [1] is at least 75%. Besides, in data set [2], the pest or weed control at 100 ppm is at least 75%.

Regarding `COCCO/N=C/c1ccnc(C(Oc2ccc3ncsc3c2)c2nnco2)c1` (stereo not drawn) [b-70], the pest or weed control at 125 ppm in data set [1] is at least 75%. For the same molecule, in data set [2], the pest or weed control at 100 ppm is at least 75%.

One may read the melting point as the temperature, or range, at which the solid turns liquid.
